Experimental data from the supplement of paper PMC10307832.

Tests used:
Experiment in all cases: relative viability (nuclei count vs DMSO), 5 days (fraction); higher = more cells survive
[1] = compound: C1=CC2=C(C=CC(=C2)C=C3C(=O)NC(=NCC4=CC=CS4)S3)N=C1 [RO-3306] + O=C(CCCCCCC(=O)Nc1ccccc1)NO [Vorinostat] (partner 1 µM)
Outline: (§1)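 A single step with final 0.05% Triton X-100, 1% formaldehyde and 1 ug/ml Hoechst fixed the cells and stained nuclei 5 days after treatment. Lung cancer cell lines in 1536-well plates had been treated by pin tool the day after seeding with one drug alone or a fixed anchor-drug dose plus five library-drug doses (not always all listed) in √10 steps, and nuclei were counted on 4× images. Relative viability is the ratio of nuclei in treated wells to nuclei in vehicle wells, taken as the median of duplicate plates.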

[2] = compound: C1=CC2=C(C=CC(=C2)C=C3C(=O)NC(=NCC4=CC=CS4)S3)N=C1 [RO-3306] + NC(=O)Nc1cc(-c2cccc(F)c2)sc1C(=O)N[C@H]1CCCNC1 [AZD7762] (partner 0.2 µM)
Outline: as §1

[3] = compound: C1=CC2=C(C=CC(=C2)C=C3C(=O)NC(=NCC4=CC=CS4)S3)N=C1 [RO-3306] + Cc1nc(NC(=O)N2CCC[C@H]2C(N)=O)sc1-c1ccnc(C(C)(C)C(F)(F)F)c1 [Alpelisib] (partner 2 µM)
Outline: as §1

[4] = compound: O=S(=O)(c1ccccc1)N(CC(F)(F)F)c1ccc(C(O)(C(F)(F)F)C(F)(F)F)cc1 + CCNC(=O)c1noc(-c2cc(C(C)C)c(O)cc2O)c1-c1ccc(CN2CCOCC2)cc1 [Luminespib] (partner 0.01 µM)
Outline: as §1

Cell Line | relative viability ([1]; first compound 0.01 µM) | relative viability ([1]; first compound 0.03162 µM) | relative viability ([1]; first compound 0.1 µM) | relative viability ([1]; first compound 0.3162 µM) | relative viability ([1]; first compound 1 µM) | relative viability ([2]; first compound 0.01 µM) | relative viability ([2]; first compound 0.03162 µM) | relative viability ([2]; first compound 0.1 µM) | relative viability ([2]; first compound 0.3162 µM) | relative viability ([2]; first compound 1 µM) | relative viability ([3]; first compound 0.01 µM) | relative viability ([3]; first compound 0.03162 µM) | relative viability ([3]; first compound 0.1 µM) | relative viability ([3]; first compound 0.3162 µM) | relative viability ([3]; first compound 1 µM) | relative viability ([4]; first compound 0.8 µM) | relative viability ([4]; first compound 2.53 µM) | relative viability ([4]; first compound 8 µM)
NCI-H1915 | 0.577 | 0.564 | 0.505 | 0.49 | 0.505 | 0.749 | 0.679 | 0.727 | 0.698 | 0.685 | 1.11 | 0.988 | 1.08 | 1.11 | 1.05 | 0.813 | 0.776 | 0.786
NCI-H1703 |  |  |  |  |  | 0.137 | 0.102 | 0.125 |  | 0.124 | 0.467 | 0.324 | 0.342 | 0.262 | 0.307 |  |  | 
NCI-H727 | 1.08 | 1.25 | 1.02 | 1.3 | 1.06 | 0.488 | 0.681 | 0.558 | 0.567 | 0.739 | 0.622 | 0.531 | 0.517 | 0.716 | 0.786 | 0.389 | 0.292 | 0.358
LC-2-ad | 0.773 | 0.635 | 0.78 | 0.695 | 0.626 | 0.86 | 0.842 | 0.826 | 0.823 | 0.647 | 1.07 | 0.832 | 0.846 | 0.887 | 0.812 | 0.898 | 0.892 | 0.864
NCI-H2009 | 0.797 | 0.739 | 0.677 | 0.81 | 0.712 |  |  |  |  |  | 1.18 | 1.18 | 1.21 | 1.12 | 1.27 | 1 | 0.878 | 0.787
A-427 | 0.843 | 0.818 | 0.898 | 0.911 | 0.865 | 0.821 | 0.766 | 0.685 | 0.744 | 0.832 | 1.13 | 0.575 | 1 | 1.06 | 1.02 | 0.919 | 0.774 | 1.05
SK-MES-1 | 1.35 | 1.12 | 1.12 | 1.32 | 1.08 |  |  |  |  |  | 0.9 | 0.553 | 0.831 | 0.983 | 0.922 | 0.677 | 0.744 | 0.533
NCI-H1734 | 0.802 | 0.631 | 0.733 | 0.828 | 0.734 | 0.596 | 0.491 | 0.536 | 0.585 | 0.483 | 0.687 | 0.595 | 0.697 | 0.726 | 0.719 | 0.191 | 0.217 | 0.204
LOU-NH91 | 0.857 | 0.828 | 0.854 | 0.871 | 0.866 | 0.76 | 0.721 | 0.746 | 0.721 | 0.667 | 0.7 | 0.705 | 0.764 | 0.708 | 0.671 | 0.404 | 0.353 | 0.285
LCLC-103H | 0.903 | 0.663 | 0.796 | 0.812 | 0.766 | 0.732 | 0.695 | 0.795 | 0.819 | 0.725 | 0.919 | 0.976 | 1.03 | 0.962 | 0.948 | 1.07 | 0.862 | 0.845
